Test results as given in ChEMBL document CHEMBL3813609, “Efficient protein knockdown of HaloTag-fused proteins using hybrid molecules consisting of IAP antagonist and HaloTag ligand” (Bioorg Med Chem, 2016).
Values belong to the molecule of their own block, whether it stands above or below them. Activity calls are given as the source filed them. The rule behind the calls is not given here. Where a SMILES comes first, the peptide text is derived from it. [ ]: non-standard residue; d: D form. The star is where a group is joined. Dip = N[C@H](C(=O)O)C(c1ccccc1)c1ccccc1; X2 = ClCCCCCCOCCOCCOCCOCCOCCN*; Chg = N[C@H](C(=O)O)C1CCCCC1; NMeA = CN[C@@H](C)C(=O)O; X1 = ClCCCCCCOCCOCCOCCN*

How the values were obtained:
Format in all cases: cell-based
[1] = target: Cyclic AMP-responsive element-binding protein 1 (Homo sapiens) (UniProt P16220); experiment: Induction of degradation of halo-tagged CREB1 (unknown origin) expressed in HEK293 cells at 10 uM by Western blot analysis
Cyclic AMP-responsive element-binding protein 1 (Homo sapiens), sequence (P16220 whole entry): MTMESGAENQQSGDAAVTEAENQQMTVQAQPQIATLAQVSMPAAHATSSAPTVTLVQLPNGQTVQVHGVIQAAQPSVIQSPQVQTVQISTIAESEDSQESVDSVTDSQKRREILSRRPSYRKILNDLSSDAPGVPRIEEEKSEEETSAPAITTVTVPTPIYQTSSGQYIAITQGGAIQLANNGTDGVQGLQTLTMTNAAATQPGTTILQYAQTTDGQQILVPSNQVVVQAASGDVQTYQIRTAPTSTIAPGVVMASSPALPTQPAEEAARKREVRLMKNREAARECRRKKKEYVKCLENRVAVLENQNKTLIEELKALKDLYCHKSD

[2] = target: Transcription factor Jun (Homo sapiens) (UniProt P05412); experiment: Induction of degradation of halo-tagged c-jun (unknown origin) expressed in HEK293 cells assessed as time required to reduce level of halo-tagged c-jun at 10 uM by Western blot analysis
Transcription factor Jun (Homo sapiens), sequence (P05412 whole entry): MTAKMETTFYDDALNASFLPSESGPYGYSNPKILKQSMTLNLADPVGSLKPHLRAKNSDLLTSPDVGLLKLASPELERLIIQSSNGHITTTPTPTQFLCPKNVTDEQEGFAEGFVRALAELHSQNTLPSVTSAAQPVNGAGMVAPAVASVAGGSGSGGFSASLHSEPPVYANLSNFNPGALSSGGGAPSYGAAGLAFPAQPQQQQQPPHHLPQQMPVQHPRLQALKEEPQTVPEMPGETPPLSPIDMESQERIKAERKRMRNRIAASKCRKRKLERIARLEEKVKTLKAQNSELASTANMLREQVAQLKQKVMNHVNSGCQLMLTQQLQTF

[3] = target: Tumor necrosis factor (Homo sapiens) (UniProt P01375); experiment: Induction of degradation of halo-tagged TNFalpha (unknown origin) expressed in HEK293 cells at 10 uM after 24 hrs by Western blot analysis
Tumor necrosis factor (Homo sapiens), sequence (P01375 whole entry): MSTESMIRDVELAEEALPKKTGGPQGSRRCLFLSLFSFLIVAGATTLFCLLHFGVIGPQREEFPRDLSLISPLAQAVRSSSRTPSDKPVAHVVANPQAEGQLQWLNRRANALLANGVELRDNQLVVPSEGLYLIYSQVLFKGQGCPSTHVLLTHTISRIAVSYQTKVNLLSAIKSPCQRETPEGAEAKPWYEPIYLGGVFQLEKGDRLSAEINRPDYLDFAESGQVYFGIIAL

[4] = target: Tumor necrosis factor (Homo sapiens) (UniProt P01375); experiment: Induction of degradation of halo-tagged human TNFalpha expressed in HEK293 cells at 30 uM after 6 hrs by Western blot analysis
[5] = target: Tumor necrosis factor (Homo sapiens) (UniProt P01375); experiment: Induction of degradation of halo-tagged human TNFalpha expressed in HEK293 cells at 1 uM after 6 hrs by Western blot analysis
[6] = target: Tumor necrosis factor (Homo sapiens) (UniProt P01375); experiment: Increase in level of halo-tagged human TNFalpha expressed in HEK293 cells at 0.1 to 0.3 uM after 6 hrs by Western blot analysis
[7] = target: Tumor necrosis factor (Homo sapiens) (UniProt P01375); experiment: Induction of degradation of halo-tagged human TNFalpha expressed in HEK293 cells at 1 uM after 6 hrs by Western blot analysis in presence of proteasome inhibitor MG132
HEK293 [8] = experiment: Induction of degradation of bacterial haloalkane dehalogenase expressed in HEK293 cells at 1 uM after 6 hrs by Western blot analysis; settings: Bacteria
[9] = target: Tumor necrosis factor (Homo sapiens) (UniProt P01375); experiment: Induction of degradation of halo-tagged human TNFalpha expressed in HEK293 cells after 6 hrs by Western blot analysis
HEK293 [10] = experiment: Increase in level of bacterial haloalkane dehalogenase expressed in HEK293 cells at 0.1 to 0.3 uM after 6 hrs by Western blot analysis; settings: Bacteria
[11] = target: Cell division control protein 42 homolog (Homo sapiens) (UniProt P60953); experiment: Induction of degradation of halo-tagged human Cdc42 expressed in HEK293 cells at 1 uM after 6 hrs by Western blot analysis
Cell division control protein 42 homolog (Homo sapiens), sequence (P60953 whole entry, looked up): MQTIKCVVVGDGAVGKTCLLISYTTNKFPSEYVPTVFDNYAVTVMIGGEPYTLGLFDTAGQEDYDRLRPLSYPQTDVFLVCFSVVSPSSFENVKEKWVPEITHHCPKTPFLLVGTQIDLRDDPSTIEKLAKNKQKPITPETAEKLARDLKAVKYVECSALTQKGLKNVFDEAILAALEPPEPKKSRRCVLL

SMILES: NCCOCCOCCOCCCCCCCl
Activity [5]: inactive

SMILES: CN[C@@H](C)C(=O)N[C@H](C(=O)N1CCC[C@H]1C(=O)N[C@H](C(=O)NCCOCCOCCOCCCCCCCl)C(c1ccccc1)c1ccccc1)C1CCCCC1 (H-[NMeA][Chg]P[Dip]-X1)
Activity [6]: Active | Activity [7]: inactive | Activity (HEK293 [8]): Active | Activity [9]: Dose-dependent effect | Activity (HEK293 [10]): Active | Activity [11]: inactive

SMILES: CN[C@@H](C)C(=O)NC(C(=O)N1CCC[C@H]1C(=O)N[C@H](C(=O)OC)C(c1ccccc1)c1ccccc1)C1CCCCC1 (single isomer, unassigned)
Activity [5]: inactive

The next lines start with results.

Activity [1]: Active | TIME [2]: 21 h
SMILES: CC(C)C[C@H](NC(=O)[C@@H](O)[C@H](N)Cc1ccccc1)C(=O)NCCOCCOCCOCCCCCCCl

Activity [1]: Active | TIME [2]: 21 h
SMILES: CC(C)C[C@H](NC(=O)[C@@H](O)[C@H](N)Cc1ccccc1)C(=O)NCCOCCOCCOCCOCCCCCCCl
Activity [3]: Active | Activity [4]: inactive

Activity [1]: Active | TIME [2]: 21 h
SMILES: CC(C)C[C@H](NC(=O)[C@@H](O)[C@H](N)Cc1ccccc1)C(=O)NCCOCCOCCOCCOCCOCCCCCCCl

Activity [1]: Active | TIME [2]: 21 h
SMILES: CC(C)C[C@H](NC(=O)[C@@H](O)[C@H](N)Cc1ccccc1)C(=O)NCCOCCOCCOCCOCCOCCOCCCCCCCl

Activity [11]: Active
SMILES: CN[C@@H](C)C(=O)N[C@H](C(=O)N1CCC[C@H]1C(=O)N[C@H](C(=O)NCCOCCOCCOCCOCCOCCCCCCCl)C(c1ccccc1)c1ccccc1)C1CCCCC1 (H-[NMeA][Chg]P[Dip]-X2)
Activity [6]: Active | Activity (HEK293 [8]): Active | Activity [5]: inactive | Activity (HEK293 [10]): Active
